From ChEMBL document CHEMBL3045888, “Synthesis and anti-hypertensive activity of novel sulphadimidine derivatives” (Med Chem Res, 2012) come the findings set out here.

The structures appear in SMILES notation. Calls of active or inactive are those of the source. The rule behind the calls is not given here.

The assay relates to Rattus norvegicus. The assay is described as follows: Antihypertensive activity in hypertensive Rattus norvegicus Sprague-Dawley (rat) model assessed as reduction in mean systolic blood pressure level at 0.3 mg/kg, ip after 1 hr by non-invasive tail cuff method. The format is functional, organism-based. Set-up: dose 0.3 mg/kg. Particulars: Artery.
Take `CCN(Cc1ccccc1)c1ccc(/N=N\c2ccc(S(=O)(=O)Nc3nc(C)cc(C)n3)cc2)cc1`: the outcome was Active.

For `COc1cc2nc(N3CCN(C(=O)c4ccco4)CC3)nc(N)c2cc1OC`, the outcome was Active.

For `CCNc1ccc(/N=N\c2ccc(S(=O)(=O)Nc3nc(C)cc(C)n3)cc2)cc1`, the outcome was Active.

Regarding `CCN(CC)c1ccc(/N=N\c2ccc(S(=O)(=O)Nc3nc(C)cc(C)n3)cc2)cc1`, the result was Active.

Turning to `Cc1cc(C)nc(NS(=O)(=O)c2ccc(/N=N\c3ccc(N(C)C)cc3)cc2)n1`, the result was Active.
